From US8492310B2, “Herbicidal compositions containing benzoylpyrazole compounds” (priority 2008, dated 2013)
Where two headings read alike, the source gives them in different places.

Columns and labels:
Format in all cases: in vivo
[1] = test system: barnyardgrass (Echinochloa crus-qalli L.); test: Foliar treatment pot test, visual growth inhibition rate, barnyardgrass (EC); conditions: 4.0-5.0 leaf stage, read-out: Growth inhibition rate (%) of EC Measured value; for inhibition at 250 g/ha: 192 h, 8 DAT; for inhibition at 125 g/ha: 504 h, 21 DAT
Source text: (§1) When the herbicidal activity in a case where two active ingredients are combined, is larger than the simple sum of the respective herbicidal activities of the two active ingredients (the expected activity), it is called a synergistic effect. The activity expected by the combination of two active ingredients can be calculated as follows (Colby S. R., “Weed”, vol. 15, p. 20-22, 1967). E=α+β−(α×β÷100) where
(§2) Upland field soil was put into a 1/1,000,000 hectare pot, and seeds of various plants (barnyardgrass (Echinochloa crus-qalli L.), crabgrass (Digitaria sanguinalis L.), giant foxtail (Setaria faberi Herrm.), velvetleaf (Abutilon theophrasti MEDIC.) and prickly sida (Sida spinosa L.)) were sown. When the respective plants reached predetermined leaf stage, herbicidal compositions in predetermined amounts were diluted with water in an amount corresponding to 300 L/ha and applied for foliar treatment by a small sprayer.
(§3) Further, in accordance with the above Colby's formula, the growth inhibition rate (calculated value) was calculated. In Tables, with respect to the compound Q, Compound Nos. in Table 1 are described, and with respect to other herbicidal compounds, common names are described. Further, in Tables, barnyardgrass is represented by “EC”, crabgrass by “DS”, giant foxtail by “SF”, velvetleaf by “AT”, and prickly sida by “SS”.

[2] = test system: crabgrass (Digitaria sanguinalis L.); test: Foliar treatment pot test, visual growth inhibition rate, crabgrass (DS); conditions: Digitaria sanguinalis, foliar, read-out: Growth inhibition rate (%) of DS Measured value; for inhibition at 175 g/ha: 504 h, 21 DAT; for inhibition at 375 g/ha: 528 h, 3.1-4.0 leaf stage, 22 DAT
In short: (§4)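 Seeds were sown in upland soil pots, and plants were sprayed on the foliage at a predetermined leaf stage with herbicidal compositions diluted in water at 300 L/ha. Growth inhibition was rated visually. Expected combination activity was calculated by Colby's formula to assess synergy.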

[3] = test system: velvetleaf (Abutilon theophrasti MEDIC.); test: Foliar treatment pot test, visual growth inhibition rate, velvetleaf (AT); conditions: Abutilon theophrasti, foliar, read-out: Growth inhibition rate (%) of AT Measured value; for inhibition at 300 g/ha: 3.1-3.4 leaf stage
In short: as §4

[4] = test system: prickly sida (Sida spinosa L.); test: Foliar treatment pot test, visual growth inhibition rate, prickly sida (SS); conditions: Sida spinosa, foliar, read-out: Growth inhibition rate (%) of SS Measured value; for inhibition at 63 g/ha / inhibition at 125 g/ha / inhibition at 250 g/ha: 504 h, 21 DAT
Source text: as §1, §2, §3

[5] = 336 h, 4.6-5.3 leaf stage, 14 DAT
[6] = 504 h, 3.0-3.8 leaf stage, 21 DAT
[7] = 504 h, 4.0-4.5 leaf stage, 21 DAT

## CCNc1nc(Cl)nc(NC(C)C)n1 [Atrazine, atrazine]
[1]
  inhibition at 250 g/ha: 10%
  inhibition at 125 g/ha: 0%
[2]; 336 h, 4.0-4.5 leaf stage, 14 DAT, 50 g/ha
  inhibition at 50 g/ha: 20%
[2]; 336 h, 4.0-4.5 leaf stage, 14 DAT, 400 g/ha
  inhibition at 400 g/ha: 30%
[2]; 336 h, 4.0-4.5 leaf stage, 14 DAT, 800 g/ha
  inhibition at 800 g/ha: 40%
[2]; 336 h, 5.0-6.0 leaf stage, 14 DAT, 500 g/ha
  inhibition at 500 g/ha: 0%
[2]; 336 h, 5.0-6.0 leaf stage, 14 DAT, 1000 g/ha
  inhibition at 1000 g/ha: 10%
[2]; 336 h, 5.0-6.0 leaf stage, 14 DAT, 2000 g/ha
  inhibition at 2000 g/ha: 25%
[2]; 3.5-4.3 leaf stage
  inhibition at 175 g/ha: 0%
[2]
  inhibition at 375 g/ha: 0%
[3]; [5]
  inhibition at 500 g/ha: 45%
  inhibition at 1000 g/ha: 60%
  inhibition at 2000 g/ha: 70%
[3]; 480 h, 3.1-3.5 leaf stage, 20 DAT, 50 g/ha
  inhibition at 50 g/ha: 30%
[3]; 480 h, 3.1-3.5 leaf stage, 20 DAT, 100 g/ha
  inhibition at 100 g/ha: 30%
[3]; 480 h, 3.1-3.5 leaf stage, 20 DAT, 200 g/ha
  inhibition at 200 g/ha: 35%
[3]; 480 h, 3.1-3.5 leaf stage, 20 DAT, 400 g/ha
  inhibition at 400 g/ha: 40%
[3]; 480 h, 3.1-3.5 leaf stage, 20 DAT, 600 g/ha
  inhibition at 600 g/ha: 80%
[3]; 480 h, 3.1-3.5 leaf stage, 20 DAT, 800 g/ha
  inhibition at 800 g/ha: 100%
[3]; [6]
  inhibition at 175 g/ha: 0%
[3]; 528 h, 4.0-4.4 leaf stage, 22 DAT, 375 g/ha
  inhibition at 375 g/ha: 25%
[4]; 3.0-3.3 leaf stage
  inhibition at 63 g/ha: 30%
  inhibition at 125 g/ha: 45%
  inhibition at 250 g/ha: 65%

## CCNc1nc(Cl)nc(NC(C)(C)C)n1 [Terbuthylazine, terbuthylazine]
[1]
  inhibition at 250 g/ha: 10%
  inhibition at 125 g/ha: 0%
[2]; 336 h, 3.5-4.3 leaf stage, 14 DAT, 300 g/ha
  inhibition at 300 g/ha: 25%
[2]; 3.5-4.3 leaf stage
  inhibition at 175 g/ha: 0%
[2]
  inhibition at 375 g/ha: 0%
[3]; 480 h, 20 DAT
  inhibition at 300 g/ha: 50%
[3]; [6]
  inhibition at 175 g/ha: 0%
[3]; 504 h, 21 DAT
  inhibition at 300 g/ha: 50%
[3]; [7]
  inhibition at 500 g/ha: 30%
  inhibition at 1000 g/ha: 45%
  inhibition at 2000 g/ha: 55%
[3]; 528 h, 4.0-4.4 leaf stage, 22 DAT
  inhibition at 175 g/ha: 15%
[4]; 480 h, 1.5-2.4 leaf stage, 20 DAT, 100 g/ha
  inhibition at 100 g/ha: 55%
[4]; 3.0-4.0 leaf stage
  inhibition at 63 g/ha: 0%
  inhibition at 125 g/ha: 0%
  inhibition at 250 g/ha: 20%
